Measurements: ChEMBL document CHEMBL3621055, “Mechanism of forming trimer, self-assembling nano-particle and inhibiting tumor growth of small molecule CIPPCT” (Medchemcomm, 2014)
Active and inactive are the calls of the source. The rule behind the calls is not given here.

Experiments:
CCRF S-180 [1] = assay: Antitumor activity against mouse S180 cells allografted in ICR mouse assessed as tumor growth inhibition administered as po qd for 7 days measured 24 hrs after last dose; assay type: functional
CCRF S-180 [2] = assay: Antitumor activity against mouse S180 cells allografted in ICR mouse assessed as tumor growth inhibition at 4 umol/kg, po qd for 7 days measured 24 hrs after last dose; assay type: functional, organism-based
HT-29 = assay: Cytotoxicity against human HT-29 cells after 48 hrs by MTT assay; assay type: functional, cell-based; conditions: HT-29, 48 h
HeLa = assay: Cytotoxicity against human HeLa cells after 48 hrs by MTT assay; assay type: functional, cell-based
CCRF S-180 [3] = assay: Antitumor activity against mouse S180 cells allografted in ICR mouse assessed as decrease of uPA levels in serum administered as po qd for 7 days measured 24 hrs after last dose; assay type: functional, organism-based
HL-60 = assay: Cytotoxicity against human HL60 cells after 48 hrs by MTT assay; assay type: functional, cell-based; conditions: HL-60, 48 h
HepG2 [4] = assay: Cytotoxicity against human HepG2 cells after 48 hrs by MTT assay; assay type: functional, cell-based; conditions: HepG2, 48 h
HepG2 [5] = assay: Drug uptake in human HepG2 cells at 10^-10 M after 15 to 240 mins by fluorescence assay; assay type: ADME, cell-based; conditions: hepg2, 0.0001 µM
SW480 = assay: Cytotoxicity against human SW480 cells after 48 hrs by MTT assay; assay type: functional, cell-based; conditions: SW480, 48 h
CCRF S-180 [6] = assay: Antitumor activity against mouse S180 cells allografted in ICR mouse assessed as tumor growth inhibition at 2 umol/kg, ip qd for 7 days measured 24 hrs after last dose; assay type: functional, organism-based

Structure (SMILES)	MED (CCRF S-180 [1])	inhibition (CCRF S-180 [1])	inhibition (CCRF S-180 [2])	IC50 (HT-29)	IC50 (HeLa)	Activity (CCRF S-180 [3])	IC50 (HL-60)	IC50 (HepG2 [4])	Drug uptake (HepG2 [5])	IC50 (SW480)	inhibition (CCRF S-180 [6])
C[C@H](O)[C@H](NC(=O)[C@H](Cc1c[nH]c2ccccc12)NCC[C@H]1c2[nH]c3ccccc3c2C[C@H]2C(=O)N3CCC[C@H]3C(=O)N21)C(=O)OCc1ccccc1	0.16 µmol/kg	Dose-dependent effect	Active	> 20 µM	> 100 µM	Dose-dependent effect	> 10 µM	> 60 µM	Active	> 100 µM	
COc1cccc2c1C(=O)c1c(O)c3c(c(O)c1C2=O)C[C@@](O)(C(=O)CO)C[C@@H]3O[C@H]1C[C@H](N)[C@H](O)[C@H](C)O1											Active
